Test results reported in ChEMBL document CHEMBL2029324, “A small molecule regulates hairpin structures in d(CGG) trinucleotide repeats” (Bioorg Med Chem Lett, 2012).
Calls of active or inactive are those of the source. The calls are words filed in the database; no cut-off is given here.

Assays:
Assay type in all cases: nucleic-acid assay
Nucleic Acid [1] = assay: Binding affinity to d(CGG)10 DNA assessed as inhibition of Taq polymerase at first and fifth part of the (CGG)10 repeat region from 3'-end of the template at 5 uM
Nucleic Acid [2] = assay: Binding affinity to d(CGG)10 DNA assessed as thermal denaturation at 100 degC and 20 uM
Nucleic Acid [3] = assay: Binding affinity to d(CGG)10 DNA assessed as increase in strong positive peak by CD-UV analysis
Nucleic Acid [4] = assay: Binding affinity to d(CGG)10 DNA assessed as inhibition of Taq polymerase-mediated DNA replication
Nucleic Acid [5] = assay: Binding affinity to d(CGG)10 DNA assessed as formation of compound-DNA hairpin loop of the template at low compound concentration
Nucleic Acid [6] = assay: Binding affinity to d(CGG)10 DNA assessed as increase in positive induced CD at 5 to 20 uM by CD-UV analysis
Nucleic Acid [7] = assay: Binding affinity to d(CGG)10 DNA assessed as hairpin loop formation at 1 to 30 uM by PAGE analysis
Nucleic Acid [8] = assay: Binding affinity to d(CGG)10 DNA assessed as inhibition of Taq polymerase at first (CGG)10 repeat region from 3'-end of the template at increasing concentration
Nucleic Acid [9] = assay: Binding affinity to d(CGG)10 DNA assessed as decrease in signal intensity by CD-UV analysis
Nucleic Acid [10] = assay: Binding affinity to d(CCG)10 DNA assessed as increase in melting temperature at 5 to 20 uM
Nucleic Acid [11] = assay: Binding affinity to d(CCG)10 DNA assessed as hairpin loop formation at 30 uM by PAGE analysis
Nucleic Acid [12] = assay: Binding affinity to d(CGG)10 DNA assessed as formation of stable compound-DNA hairpin loop of the template at increasing compound concentration
Nucleic Acid [13] = assay: Binding affinity to d(CCG)10 DNA assessed as inhibition of Taq polymerase-mediated DNA replication at 20 uM

- Activity (Nucleic Acid [1]): Active
- Activity (Nucleic Acid [2]): inactive
- Activity (Nucleic Acid [3]): Dose-dependent effect
- Activity (Nucleic Acid [4]): Dose-dependent effect
- Activity (Nucleic Acid [5]): Active
- Activity (Nucleic Acid [6]): Active
- Activity (Nucleic Acid [7]): Active
- Activity (Nucleic Acid [8]): Active
- Activity (Nucleic Acid [9]): Dose-dependent effect
- Activity (Nucleic Acid [10]): inactive
- Activity (Nucleic Acid [11]): inactive
- Activity (Nucleic Acid [12]): Active
- Activity (Nucleic Acid [13]): inactive
Structure (SMILES): Cc1ccc2ccc(NC(=O)OCCCNCCCOC(=O)Nc3ccc4ccc(C)nc4n3)nc2n1
